Consider one compound from patent US8404898B2, “Integrated process for the preparation of polybenzimidazole precursors” (E I du Pont de Nemours and Company, priority 2008, dated 2013).

This series in a line: solubility of TAT salt in water. The series is classed as physicochemical. The note with it: water at 25° C. As to the method:
The reaction mixture containing the precipitated TAT salt is then cooled to about 5° C. to about 15° C. and stirred, then filtered. The TAT salt is then washed 44. […] Using an agitated filter unit during the wash procedures can allow for a reduction of the wash volumes. Under such circumstances, using small amounts of cold (e.g., about 5° C.) water instead of the aqueous acid would be effective; cold water would be used because of lower solubility of the TAT salt in cold water versus, e.g., room temperature. For example, the solubility of TAT.4HCl in water at 25° C. is about 16 wt %.

With `Cc1c(N)c(N)cc(N)c1N` [TAT.4HCl, 2,3,5,6-tetraminotoluene], the solubility in water result is “about 16 wt %”.
